Experimental data reported in patent publication US20250051376A1, “BENZIMIDAZOLE DERIVATIVE COMPOUNDS AND USE THEREOF” (PHARMGEN SCIENCE, INC., priority 2021, published 2025).

Assays:
gastric acid secretion [1] = assay: Gastric acid releasing suppression ability test by administration in the duodenum (pylorus-ligated, histamine-stimulated rats); assay type: in vivo; settings: for gastric acid releasing suppression ability (% INH, Mean ± SD): intraduodenal 1 mg/5 ml/kg in 0.5% methylcellulose, pylorus ligation, histamine s.c., gastric fluid collected 3 hours after surgery
Procedure: (§1) A week before the test, test animals (rats) were purchased and acclimatized. After acclimatization, food was removed the day before the test and fasting was performed for 24 hours using a fasting plate. The weight of each individual was measured, weight ranking was sequentially assigned to each group, and the average value of each group was randomly distributed so that the average value was evenly distributed. Test material (the embodiment compound and comparison compound) were used by dissolving them in 0.5% methylcellulose solution, and tegoprazan was used as a comparative compound. Experimental animals were subjected to inhalation anesthesia (3% isoflurane) for 3 minutes using an inhalation anesthesia machine. After making a minimal incision in the upper abdomen about 1 cm below the left side of the sternum of an anesthetized test animal, the stomach was exposed, and the pyloric ring, which is the connection between the stomach and the duodenum, was ligated. The prepared drug was administered into the duodenum in an amount of 1 mg/5 ml/kg, the stomach and duodenum were restored to their original positions, and the laparotomy site was sutured well with a surgical stapler. Histamine (7.5 mg/2.5 mL/head) was slowly administered subcutaneously to the back of the neck to promote gastric acid secretion. 3 hours after the surgery, the experimental animals were anesthetized with isoflurane and the stomach was removed through laparotomy. Gastric fluid obtained from the extracted stomach was transferred to a 15 ml conical tube, centrifuged at 5,000 rpm for 10 minutes, and only the supernatant was separated. 0.2 mL of the separated gastric fluid was diluted in 24.8 mL of distilled water to make a total dilution of 25 mL, and then 0.01N NaOH was added in small amounts to titrate until the pH reached 7. Efficacy was evaluated by calculating total acidity by combining the amount of gastric fluid and the amount of 0.01N NaOH required for titration.

gastric acid secretion [2] = assay: Gastric acid releasing suppression ability test by oral administration (pylorus-ligated, histamine-stimulated rats); assay type: in vivo
Procedure: as §1, with “The prepared test material was orally administered to test” for “Experimental”, “at an amount of 3 mg/5 ml/kg, and 30 minutes later,” for “were subjected to”, “isoflurane) was performed” for “isoflurane)”, “The” for “The prepared drug was administered into the duodenum in an amount of 1 mg/5 ml/kg, the”, “with” for “with a”, “staplers.” for “stapler.”

physchem = settings: pH 6.8, aqueous buffer, thermodynamic from solid
[3] = rats, oral 3 mg/5 ml/kg in 0.5% methylcellulose, pylorus ligation 30 min after dosing, histamine s.c., gastric fluid collected 3 hours after surgery

Compound | gastric acid releasing suppression ability (% INH, Mean ± SD) (gastric acid secretion [1]) [% INH] | gastric acid releasing suppression ability (% INH, Mean ± SD) (gastric acid secretion [2]; [3]) [% INH] | improved water solubility (pH 6.8) compared to the comparative compound [times] | solubility at 31 min (physchem) [µg/mL] | gastric acid releasing suppression ability in the gastric acid secretion animal model (in words) (gastric acid secretion [2]; rats, oral 3 mg/5 ml/kg) | ability to inhibit gastric acid secretion compared to the comparative compound (in words) (gastric acid secretion [1]; drug administered to the duodenum with a neutral pH, 1 mg/5 ml/kg) | gastric acid releasing suppression ability (% INH, Mean ± SD) (gastric acid secretion [2]; rat, in vivo) [% INH] | gastric acid releasing suppression ability in the gastric acid secretion animal model (in words) (gastric acid secretion [2]; rat, in vivo, po)
Cc1nc2cc(C(=O)N(C)C)cc(O[C@H]3CCOc4cc(F)cc(F)c43)c2[nH]1 [Comparison compound, tegoprazan, reference compound] | 29.8 ± 9.1 | 100 ± 0.0 |  |  |  |  |  | 
Cc1nc2c(O[C@H]3CCOc4cc(F)cc(F)c43)cc(C(=O)N(C)C)cc2n1COP(=O)(OC(C)(C)C)OC(C)(C)C [Embodiment 2, (S)-di-tert-butyl ((4-((5,7-difluorochroman-4-yl)oxy)-6-(dimethylcarbamoyl)-2-methyl-1H-benzo[d]imidazol-1-yl)methyl) phosphate] |  | 26.8 ± 9.2 | 256 | 5120 |  |  |  | 
Cc1nc2c(O[C@H]3CCOc4cc(F)cc(F)c43)cc(C(=O)N(C)C)cc2n1COP(=O)(O)OC(C)(C)C [Embodiment 3, tert-butyl ((4-(((S)-5,7-difluorochroman-4-yl)oxy)-6-(dimethylcarbamoyl)-2-methyl-1H-benzo (d)imidazol-1-yl)methyl) hydrogen phosphate] |  | 23.9 ± 3.3 | 128 | 2560 |  |  |  | 
Cc1nc2c(O[C@H]3CCOc4cc(F)cc(F)c43)cc(C(=O)N(C)C)cc2n1COP(=O)(O)O [Embodiment 4, (S)-(4-((5,7-difluorochroman-4-yl)oxy)-6-(dimethylcarbamoyl)-2-methyl-1H-benzo[d]imidazol-1-yl)methyl dihydrogen phosphate] |  | 100.0 ± 0.0 | 128 | 2560 | powerful gastric acid releasing suppression ability |  |  | 
sodium(S)-(4-((5,7-difluorochroman-4-yl)oxy)-6-(dimethylcarbamoyl)-2-methyl-1H-benzo (d) imidazol-1-yl)methyl phosphate) [Embodiment 6] | 43.7 ± 8.7 |  |  |  |  | improved ability to inhibit gastric acid secretion compared to the comparative compound | 92.8 ± 4.8 | powerful gastric acid releasing suppression ability
sodium(S)-tert-butyl ((4-((5,7-difluorochroman-4-yl)oxy)-6-(dimethylcarbamoyl)-2-methyl-1H-benzo (d) imidazol-1-yl)methyl) phosphate) [Embodiment 5] |  |  |  |  |  |  | 12.7 ± 10.9 | 
